From US12612424B2, “HPK1 inhibitors and uses thereof” (Regor Pharmaceuticals, Inc., priority 2019, dated 2026)

Test system: Human Pan T Cell (IL-2 release)
Test: IL2 released by human pan T cell upon anti-CD3/anti-CD28 stimulation (ELISA)
Type: cell-based
Settings: human pan T cells; for EC (2-fold response) / maximal fold induction / EC50: Homo sapiens, T-cell; for EC (2-fold response) / maximal fold induction: 48 h; for EC (2-fold response) / EC2x (nM): concentration of compound that gives 200% IL-2 response (2 folds) over DMSO control; for maximal fold induction: response of IL-2 over DMSO control, anti-CD3/anti-CD28, 48 hours, ELISA, read-out: IL-2 Max Fold Response; for EC50: IL-2 response, calculated with GraphPad Prism
Summary of the method: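 Primary human pan-T cells, negatively isolated from PBMC, plated at 100,000 cells/well and stimulated with immobilized anti-CD3 plus soluble anti-CD28 in presence of test compound at varying concentrations. After 2 days, secreted IL-2 in supernatant quantified by ELISA.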

Structure (SMILES) | EC (2-fold response) [µM] | maximal fold induction | EC50 [nM] | EC2x (nM)
COc1cc2c(cc1Nc1ncc(Cl)c(N3CC(CC(=O)O)c4ccccc43)n1)CN(C)CC2 (stereo not drawn) [Example 128] | 0.1 to 0.5 | > 2 | 100 to 500 | –
COc1cc2c(cc1Nc1ncc(Cl)c(-n3cc(CC(=O)O)c4ccccc43)n1)CN(C)CC2 [Example 129] | 0.1 to 0.5 | > 2 | 100 to 500 | –
COc1cc2c(cc1Nc1ncc(Cl)c(-n3cc(CC(=O)OC(C)C)c4ccccc43)n1)CN(C)CC2 [Example 130, Isopropyl 2-(1-(5-chloro-2-((6-methoxy-2-methyl-1,2,3,4-tetrahydroisoquinolin-7-yl)amino)pyrimidin-4-yl)-1H-indol-3-yl)acetate] | – | < 2 | – | –
COc1cc2c(cc1Nc1ncc(Cl)c(-n3cc(CC(N)=O)c4ccccc43)n1)CN(C)CC2 [Example 133] | – | < 2 | > 1000 | –
COc1cc2c(cc1Nc1ncc(Cl)c(-n3cc(CC#N)c4ccccc43)n1)CN(C)CC2 [Example 134] | – | < 2 | > 1000 | –
COc1cc2c(cc1Nc1ncc(Cl)c(-n3cc(Cc4nn[nH]n4)c4ccccc43)n1)CN(C)CC2 [Example 135, N-(4-(3-((2H-tetrazol-5-yl)methyl)-1H-indol-1-yl)-5-chloropyrimidin-2-yl)-6-methoxy-2-methyl-1,2,3,4-tetrahydroisoquinolin-7-amine] | – | < 2 | > 1000 | –
CNC(=O)Cc1cn(-c2nc(Nc3cc4c(cc3OC)CCN(C)C4)ncc2Cl)c2ccccc12 [Example 136] | – | < 2 | 500 to 1000 | –
COc1cc2c(cc1Nc1ncc(Cl)c(-n3cc(CC(=O)NCC#N)c4ccccc43)n1)CN(C)CC2 [Example 137] | – | < 2 | 500 to 1000 | –
COc1cc2c(cc1Nc1ncc(Cl)c(-n3cc(CC(=O)O)c4cc(F)ccc43)n1)CN(C)CC2 [Example 138] | 0.1 to 0.5 | > 2 | 100 to 500 | –
COc1cc2c(cc1Nc1ncc(Cl)c(-n3cc(CC(=O)O)c4ccc(F)cc43)n1)CN(C)CC2 [Example 139] | ≤ 0.1 | > 2 | ≤ 100 | –
COc1cc2c(cc1Nc1ncc(Cl)c(-n3cc(CC(=O)O)c4cc(F)c(F)cc43)n1)CN(C)CC2 [Example 140] | 0.1 to 0.5 | > 2 | 100 to 500 | –
COc1cc2c(cc1Nc1ncc(Cl)c(-n3nc(CC(=O)O)c4ccccc43)n1)CN(C)CC2 [Example 141] | – | > 2 | > 1000 | ++ (“++”, for higher values than “+++” but less than or equal to 1 μM)
COc1cc2c(cc1Nc1ncc(Cl)c(-n3cc(C(C)C(=O)O)c4ccccc43)n1)CN(C)CC2 (stereo not drawn) [Example 142] | – | < 2 | 100 to 500 | –
COC(=O)CC1(C)CN(c2nc(Nc3cc4c(cc3OC)CCN(C)C4)ncc2Cl)c2ccccc21 (stereo not drawn) [Example 145] | – | < 2 | – | –
COc1cc2c(cc1Nc1ncc(Cl)c(N3CC(C)(CC(=O)O)c4ccccc43)n1)CN(C)CC2 (stereo not drawn) [Example 146] | ≤ 0.1 | > 2 | ≤ 100 | –
CCOC(=O)CC1(C)CN(c2nc(Nc3cc4c(cc3OC)CCN(C)C4)ncc2Cl)c2ccccc21 (stereo not drawn) [Example 149] | – | < 2 | – | –
COc1cc2c(cc1Nc1ncc(Cl)c(N3CC(C)(CC(=O)O)c4cc(F)ccc43)n1)CN(C)CC2 (stereo not drawn) [Example 150, 2-(1-(5-Chloro-2-((6-methoxy-2-methyl-1,2,3,4-tetrahydroisoquinolin-7-yl)amino)pyrimidin-4-yl)-5-fluoro-3-methylindolin-3-yl)acetic acid] | ≤ 0.1 | > 2 | ≤ 100 | –
COc1cc2c(cc1Nc1ncc(Cl)c(N3CC(C)(CC(=O)O)c4ccc(F)cc43)n1)CN(C)CC2 (stereo not drawn) [Example 151] | ≤ 0.1 | > 2 | ≤ 100 | –
COc1cc2c(cc1Nc1ncc(Cl)c(N3CC(C)(CC(=O)O)c4cc(F)c(F)cc43)n1)CN(C)CC2 (stereo not drawn) [Example 154] | ≤ 0.1 | > 2 | ≤ 100 | –
CN1CCc2cc(F)c(Nc3ncc(Cl)c(N4CC(C)(CC(=O)O)c5ccccc54)n3)cc2C1 (stereo not drawn) [Example 156] | ≤ 0.1 | > 2 | ≤ 100 | –
CCN1CCc2cc(OC)c(Nc3ncc(Cl)c(N4CC(C)(CC(=O)O)c5ccccc54)n3)cc2C1 (stereo not drawn) [Example 157, 2-(1-(5-Chloro-2-((2-ethyl-6-methoxy-1,2,3,4-tetrahydroisoquinolin-7-yl)amino)pyrimidin-4-yl)-3-methylindolin-3-yl)acetic acid] | ≤ 0.1 | > 2 | ≤ 100 | –
COc1cc2c(cc1Nc1ncc(Cl)c(N3CC(C)(CC(=O)O)c4ccccc43)n1)CN(C(C)C)CC2 (stereo not drawn) [Example 158, 2-(1-(5-Chloro-2-((2-isopropyl-6-methoxy-1,2,3,4-tetrahydroisoquinolin-7-yl)amino)pyrimidin-4-yl)-3-methylindolin-3-yl)acetic acid] | ≤ 0.1 | > 2 | ≤ 100 | –
COc1cc2c(cc1Nc1ncc(Cl)c(N3CC(C)(CC(=O)O)c4ccccc43)n1)CN(C)C2 (stereo not drawn) [Example 159, 2-(1-(5-Chloro-2-((6-methoxy-2-methylisoindolin-5-yl)amino)pyrimidin-4-yl)-3-methylindolin-3-yl)acetic acid] | ≤ 0.1 | > 2 | ≤ 100 | –
COc1cc2c(cc1Nc1ncc(Cl)c(N3CC(C)(CC(=O)O)c4ccccc43)n1)CNCC2 (stereo not drawn) [Example 160, 2-(1-(5-Chloro-2-((6-methoxy-1,2,3,4-tetrahydroisoquinolin-7-yl)amino)pyrimidin-4-yl)-3-methylindolin-3-yl)acetic acid methanesulfonic acid] | ≤ 0.1 | > 2 | ≤ 100 | –
COc1cc2c(cc1Nc1ncc(Cl)c(-c3cn(CC(=O)O)c4ccccc34)n1)CN(C)CC2 [Example 161] | – | > 2 | > 1000 | + (“+”, for greater than 1 μM)
COc1cc2c(cc1Nc1ncc(Cl)c(-c3nn(CC(=O)O)c4ccccc34)n1)CN(C)CC2 [Example 162, 2-(3-(5-Chloro-2-((6-methoxy-2-methyl-1,2,3,4-tetrahydroisoquinolin-7-yl)amino)pyrimidin-4-yl)-1H-indazol-1-yl)acetic acid] | – | < 2 | – | –
COc1cc2c(cc1Nc1nccc(N3CC(C(=O)O)c4ccccc43)n1)CN(C)CC2 (stereo not drawn) [Example 163, 1-(2-((6-Methoxy-2-methyl-1,2,3,4-tetrahydroisoquinolin-7-yl)amino)pyrimidin-4-yl)indoline-3-carboxylic acid] | – | > 2 | > 1000 | + (“+”, for greater than 1 μM)
COc1cc2c(cc1Nc1ncc3cc(C#N)n(-c4ccccc4)c3n1)CN(C)CC2 [Example 164, 2-((6-Methoxy-2-methyl-1,2,3,4-tetrahydroisoquinolin-7-yl)amino)-7-phenyl-7H-pyrrolo[2,3-d]pyrimidine-6-carbonitrile] | – | < 2 | ≤ 100 | –
COc1cc2c(cc1Nc1ncc(Cl)c(N3CC(C(=O)O)C4(CCCCC4)C3)n1)CN(C)CC2 (stereo not drawn) [Example 167, 2-(5-Chloro-2-((6-methoxy-2-methyl-1,2,3,4-tetrahydroisoquinolin-7-yl)amino)pyrimidin-4-yl)-2-azaspiro[4.5]decane-4-carboxylic acid] | 0.1 to 0.5 | > 2 | 500 to 1000 | –
COc1cc2c(cc1Nc1ncc(Cl)c(N3CC(C(=O)O)C4(CCCC4)C3)n1)CN(C)CC2 (stereo not drawn) [Example 169, 2-(5-Chloro-2-((6-methoxy-2-methyl-1,2,3,4-tetrahydroisoquinolin-7-yl)amino)pyrimidin-4-yl)-2-azaspiro[4.4]nonane-4-carboxylic acid] | – | > 2 | > 1000 | ++ (“++”, for higher values than “+++” but less than or equal to 1 μM)
